Experimental data: EP3560516A1, “COMBINATION THERAPY INCLUDING BETA-SITOSTEROL IN COMBINATION WITH AT LEAST ONE OF A BRAF INHIBITOR, A MEK INHIBITOR OR AN ERK INHIBITOR AND METHODS AND USE THEREOF” (Bergen Teknologioverføring AS, priority 2018, dated 2019)

Tests used:
[1] = tested on: four melanoma cell lines; assay: monolayer viability and tumorsphere assays; type: cell-based; conditions: among top 10 candidate compounds from cMap
From the text: Based on RNA sequencing of tumors in brains, adrenals, bone and ovaries from mice, we defined a 108-gene brain metastasis signature using a comparative work-flow of independent analyses of gene expression profiles from brain versus other organ metastases in a human BRAF-mutant melanoma xenograft model. […] For further studies, we concentrated on the top 10 candidate anti-brain metastatic compounds. To test the efficacy of the candidate compounds, we performed monolayer viability and tumorsphere assays in four melanoma cell lines (Daphu I et al, Int J Mol Sci 2014;15:8773.8794, Netland IA et al, J Neurooncol 2016;129:57-66). IC50 values were generally lower in tumorspheres than in monolayers, and there was substantial variation in cell line sensitivity.

[2] = tested on: brain metastases; assay: in vivo drug screening in human-to-mouse brain metastasis model; conditions: compared with vehicle-treated mice; for survival: Kaplan-Meier
From the text: (§1) • Figure 1: In vivo drug screening. (Figure left) Number of brain metastases at T1-weighted MRI with contrast (Student's t-test). (Figure right) Kaplan-Meier survival plot (Mantel-Cox log-rank test). There was no significant difference between vehicle- and memantine-treated mice. * P < 0.05; ** P < 0.01. All values are given as the mean ± s.e.m. • Figure 2: In vivo validation of β-sitosterol treatment-1. (Figure left) Number of brain metastases assessed by T1-weighted MRI with contrast (Student's t-test). The mean number of brain metastases in the vehicle group decreased slightly from seven to eight weeks as four mice with the greatest number of brain metastases were sacrificed between these observation points. (Figure right) Kaplan-Meier survival plot (Mantel-Cox log-rank test). The experiment was terminated at 100 days, and three mice in the β-sitosterol group were still alive and healthy. * P < 0.05; ** P < 0.01; **** P < 0.0001. All values are given as the mean ± s.e.m. • Figure 3: In vivo validation of β-sitosterol on H1_DL2 brain metastasis-2. (Figure left) Body weight from week zero to eight. […] (Figure right) Volume of brain metastases at MRI (T1-weighted with contrast). Total volume of brain metastases per animal was compared at group level. Student's t-test: n.s. P ≥ 0.05, * P < 0.05, ** P < 0.01, *** P < 0.001, **** P < 0.0001. All values are given as the mean ± s.e.m. • Figure 4: In vivo validation of β-sitosterol on PC14-PE6-Br2 brain metastases. Mice were injected intracardially with 5 x 10^5 PC14-PE6-Br2 cells. Test groups received daily i.p. injections of 0.1 mL vehicle (olive oil; n =4) or β-sitosterol 5 mg/kg (n = 6). (Figure left) Total volume of brain metastases at MRI at three weeks (T1-weighted with contrast). Total volume of brain metastases per animal was compared at group level. (Figure right) Kaplan-Meier survival plot (Mantel-Cox log-rank test: *** P < 0.001). All values are given as the mean ± s.e.m. • Figure 5: In vitro and in vivo effects on additional melanoma metastatic cell lines. (Figure left) Half maximal inhibitory concentration (IC50) values for β-sitosterol, PLX4720 and the combination thereof in Melmet 1, Melmet 5 and A375 cell lines (n = 3). (Figure right) Subcutaneous tumor volume ([width2 x length]/2) in mice injected with […] Melmet 5 cells. Mice were from 2 weeks onwards given daily i.p. injections of 0.1 mL vehicle (olive oil), 20 mg/kg β-sitosterol in olive oil, 25 mg/kg PLX4720 in 0.05% DMSO, or a combination of the two latter (n = 8 in each group). Representative images of tumors at 44 days are shown in the right panel. Student's t-test: * P < 0.05, ** P < 0.01. Values are given as the mean ± s.e.m. • Figure 6: In vitro effects of other BRAF and MEK inhibitors on human melanoma brain metastatic cell lines. 5000 cells (human BRAF mutated melanoma brain metastatic cell lines H1, H9 or H10) were plated in each well of a 96 well dish. After 24 hours, the drugs were added to the wells, incubated for 72 hours, and then viability was assessed using an MTS assay. […] 5000 cells were plated in each well of a 96 well dish. After 24 hours, the drugs were added to the wells, incubated for 72 hours, and then viability was assessed using an MTS assay.
We next investigated the efficacy of thiostrepton, memantine, and β-sitosterol using a highly standardized human-to-mouse brain metastasis model (Sundstrøm T et al, Cancer Res 2013;73:2445-2456). Drug treatment was commenced one week after tumor cell injections.

[3] = tested on: H1_DL2 brain metastasis; assay: in vivo validation of β-sitosterol treatment, treatment commenced before cell injection; parameters: species or system mice
From the text: as §1
To validate our β-sitosterol treatment findings, we carried out a new and more extensive in vivo study in which treatment commenced before cell injection.

[4] = tested on: PC14-PE6-Br2 brain metastases; assay: in vivo validation on lung adenocarcinoma brain metastases; parameters: species or system mice; conditions: 5 mg/kg daily i.p.
From the text: • Figure 1: In vivo drug screening. (Figure left) Number of brain metastases at T1-weighted MRI with contrast (Student's t-test). (Figure right) Kaplan-Meier survival plot (Mantel-Cox log-rank test). There was no significant difference between vehicle- and memantine-treated mice. * P < 0.05; ** P < 0.01. All values are given as the mean ± s.e.m. • Figure 2: In vivo validation of β-sitosterol treatment-1. (Figure left) Number of brain metastases assessed by T1-weighted MRI with contrast (Student's t-test). The mean number of brain metastases in the vehicle group decreased slightly from seven to eight weeks as four mice with the greatest number of brain metastases were sacrificed between these observation points. (Figure right) Kaplan-Meier survival plot (Mantel-Cox log-rank test). The experiment was terminated at 100 days, and three mice in the β-sitosterol group were still alive and healthy. * P < 0.05; ** P < 0.01; **** P < 0.0001. All values are given as the mean ± s.e.m. • Figure 3: In vivo validation of β-sitosterol on H1_DL2 brain metastasis-2. (Figure left) Body weight from week zero to eight. […] After 24 hours, the drugs were added to the wells, incubated for 72 hours, and then viability was assessed using an MTS assay. […] After 24 hours, the drugs were added to the wells, incubated for 72 hours, and then viability was assessed using an MTS assay.

[5] = tested on: Melmet 5 cells; assay: subcutaneous Melmet 5 melanoma model; type: in vivo, mice; conditions: daily i.p. from 2 weeks: 20 mg/kg β-sitosterol, 25 mg/kg PLX4720, or both
From the text: (§2) • Figure 1: In vivo drug screening. (Figure left) Number of brain metastases at T1-weighted MRI with contrast (Student's t-test). (Figure right) Kaplan-Meier survival plot (Mantel-Cox log-rank test). There was no significant difference between vehicle- and memantine-treated mice. * P < 0.05; ** P < 0.01. All values are given as the mean ± s.e.m. • Figure 2: In vivo validation of β-sitosterol treatment-1. (Figure left) Number of brain metastases assessed by T1-weighted MRI with contrast (Student's t-test). The mean number of brain metastases in the vehicle group decreased slightly from seven to eight weeks as four mice with the greatest number of brain metastases were sacrificed between these observation points. (Figure right) Kaplan-Meier survival plot (Mantel-Cox log-rank test). The experiment was terminated at 100 days, and three mice in the β-sitosterol group were still alive and healthy. * P < 0.05; ** P < 0.01; **** P < 0.0001. All values are given as the mean ± s.e.m. • Figure 3: In vivo validation of β-sitosterol on H1_DL2 brain metastasis-2. (Figure left) Body weight from week zero to eight. […] After 24 hours, the drugs were added to the wells, incubated for 72 hours, and then viability was assessed using an MTS assay. […] After 24 hours, the drugs were added to the wells, incubated for 72 hours, and then viability was assessed using an MTS assay. […]

[6] = tested on: H1 cells; assay: MTS viability assay; type: cell-based, human
From the text: (§3) • Figure 1: In vivo drug screening. (Figure left) Number of brain metastases at T1-weighted MRI with contrast (Student's t-test). (Figure right) Kaplan-Meier survival plot (Mantel-Cox log-rank test). There was no significant difference between vehicle- and memantine-treated mice. * P < 0.05; ** P < 0.01. All values are given as the mean ± s.e.m. • Figure 2: In vivo validation of β-sitosterol treatment-1. (Figure left) Number of brain metastases assessed by T1-weighted MRI with contrast (Student's t-test). The mean number of brain metastases in the vehicle group decreased slightly from seven to eight weeks as four mice with the greatest number of brain metastases were sacrificed between these observation points. (Figure right) Kaplan-Meier survival plot (Mantel-Cox log-rank test). The experiment was terminated at 100 days, and three mice in the β-sitosterol group were still alive and healthy. * P < 0.05; ** P < 0.01; **** P < 0.0001. All values are given as the mean ± s.e.m. • Figure 3: In vivo validation of β-sitosterol on H1_DL2 brain metastasis-2. (Figure left) Body weight from week zero to eight. […] (Figure right) Volume of brain metastases at MRI (T1-weighted with contrast). Total volume of brain metastases per animal was compared at group level. Student's t-test: n.s. P ≥ 0.05, * P < 0.05, ** P < 0.01, *** P < 0.001, **** P < 0.0001. All values are given as the mean ± s.e.m. • Figure 4: In vivo validation of β-sitosterol on PC14-PE6-Br2 brain metastases. Mice were injected intracardially with 5 x 10^5 PC14-PE6-Br2 cells. Test groups received daily i.p. injections of 0.1 mL vehicle (olive oil; n =4) or β-sitosterol 5 mg/kg (n = 6). (Figure left) Total volume of brain metastases at MRI at three weeks (T1-weighted with contrast). Total volume of brain metastases per animal was compared at group level. (Figure right) Kaplan-Meier survival plot (Mantel-Cox log-rank test: *** P < 0.001). All values are given as the mean ± s.e.m. • Figure 5: In vitro and in vivo effects on additional melanoma metastatic cell lines. (Figure left) Half maximal inhibitory concentration (IC50) values for β-sitosterol, PLX4720 and the combination thereof in Melmet 1, Melmet 5 and A375 cell lines (n = 3). (Figure right) Subcutaneous tumor volume ([width2 x length]/2) in mice injected with […] Melmet 5 cells. Mice were from 2 weeks onwards given daily i.p. injections of 0.1 mL vehicle (olive oil), 20 mg/kg β-sitosterol in olive oil, 25 mg/kg PLX4720 in 0.05% DMSO, or a combination of the two latter (n = 8 in each group). […] After 24 hours, the drugs were added to the wells, incubated for 72 hours, and then viability was assessed using an MTS assay. […] After 24 hours, the drugs were added to the wells, incubated for 72 hours, and then viability was assessed using an MTS assay. […]

[7] = tested on: H10 cells; assay: MTS viability assay; type: cell-based, human
From the text: as §3

[8] = tested on: H9 cells; assay: MTS viability assay; type: cell-based; conditions: Homo sapiens, H9, 72 h, read-out: cell viability
From the text: as §2

[9] = tested on: MDA-MB-231; assay: MTS viability assay; type: cell-based, human
From the text: as §3

[10] = MRI, treatment commenced one week after tumor cell injections
[11] = human, mda-mb-231 cells, 72 h, 35 µM

CC[C@H](CC[C@@H](C)[C@H]1CC[C@H]2[C@@H]3CC=C4C[C@@H](O)CC[C@]4(C)[C@H]3CC[C@]12C)C(C)C [β-sitosterol]
reducing viability and tumorsphere growth [1]: most potent
survival [2]: survived significantly longer
number of brain metastases [2, 10]: significant reduction
volume of brain metastases [2, 10]: significant reduction
survival ([3]; Kaplan-Meier, compared with vehicle treatment, terminated at 100 days): significant survival benefit
volumes of brain metastases ([3]; MRI T1-weighted with contrast, compared with vehicle group): significantly lower volumes
number of brain metastases ([3]; T1-weighted MRI with contrast, compared with vehicle group): significantly fewer brain metastases
mice healthy and tumor-free ([3]; at 100 days, evaluated by brain MRI and histology): three out of nine
average body weight ([3]; at 100 days, three remaining mice, mean ± s.e.m.): 26.7 ± 0.6 grams
body weight ([3]; week zero to eight, vehicle-treated mice lost weight from four weeks onwards): maintained a stable body weight
survival ([4]; Kaplan-Meier): prolonged survival
brain metastatic burden ([4]; MRI at three weeks, compared with vehicle): significant reduction
subcutaneous tumor growth [5]: effective as monotherapies
cell viability ([6]; 50uM beta-sitosterol, 5nM trametinib, 72 hours, compared with untreated cells): around 85%
cell viability ([7]; 50uM beta-sitosterol, 5uM vemurafenib, 72 hours, compared to the untreated cells): around 80%
viability at 50 µM [8]: 85%
cell viability ([9]; 35uM beta-sitosterol, 0.5uM trametinib, 72 hours (Figure 7 left)): around 48%
cell viability ([9]; 35uM beta-sitosterol, 5uM vemurafenib, 72 hours (Figure 7 right)): around 44%

C=C(NC(=O)C(=C)NC(=O)c1csc(C2=N[C@@H]3c4csc(n4)[C@H]4NC(=O)c5csc(n5)[C@H]([C@](C)(O)[C@@H](C)O)NC(=O)[C@H]5CSC(=N5)/C(=C/C)NC(=O)[C@H]([C@@H](C)O)NC(=O)c5csc(n5)[C@]3(CC2)NC(=O)[C@H](C)NC(=O)C(=C)NC(=O)[C@H](C)NC(=O)[C@H]([C@@H](C)CC)N[C@@H]2C=Cc3c([C@H](C)O)cc(nc3[C@H]2O)C(=O)O[C@@H]4C)n1)C(N)=O [thiostrepton, reference compound]
reducing viability and tumorsphere growth [1]: most potent
survival [2]: significantly shorter lifespan

CCCS(=O)(=O)Nc1ccc(F)c(C(=O)c2c[nH]c3ncc(-c4ccc(Cl)cc4)cc23)c1F [vemurafenib, reference compound]
cell viability ([7]; h10 cells, 72 h, 50 µM): around 25%
cell viability [9, 11]: ~73%

CCCS(=O)(=O)Nc1ccc(F)c(C(=O)c2c[nH]c3ncc(Cl)cc23)c1F [PLX4720, reference compound]
subcutaneous tumor growth [5]: effective as monotherapies

CC12CC3CC(C)(C1)CC(N)(C3)C2 [memantine, reference compound]
reducing viability and tumorsphere growth [1]: most potent
survival [2]: did not affect survival

CC(=O)Nc1cccc(-n2c(=O)n(C3CC3)c(=O)c3c(Nc4ccc(I)cc4F)n(C)c(=O)c(C)c32)c1 [trametinib, reference compound]
cell viability ([6]; h1 cells, 72 h, 50 µM): ~60%
cell viability [9, 11]: around 44%
